Test results reported in US20120070417A1, “ANTI-INFLUENZA FORMULATIONS AND METHODS” (priority 2009, published 2012).
Read-outs that look alike come from different tables or passages of the source.

System: Influenza A/WSN/33/1
Type: cell-based

CC(=O)NC1[C@@H](NC(=N)N)C=C(C(=O)O)O[C@H]1[C@H](O)[C@H](O)CO (stereo partly drawn) [zanamivir, 5-(acetylamino)-4-[(aminoiminomethyl)-amino]-2,6-anhydro-3,4,5-trideoxy-D-glycero-D-galacto-non-2-enoic acid]
reduced viral titers compared to the untreated control (0.1 nM zanamivir alone): 40 fold
viral infection, dose response ([…], p<0.01 vs untreated (Air) control): reduced viral infection in a dose responsive manner

CCOC(=O)C1=C[C@@H](OC(CC)CC)[C@H](NC(C)=O)[C@@H](N)C1 [oseltamivir, (3R,4R,5S)-4-acetylamino-5-amino-3(1-ethylpropoxy)-1-cyclohexene-1-carboxylic acid ethyl ester]
reduced influenza titers compared to untreated (air) control (1 nM oseltamivir in basolateral media): 5 fold

NC(=O)c1ncn([C@@H]2O[C@H](CO)[C@@H](O)[C@H]2O)n1 [ribavirin]
reduced influenza titers compared to untreated (air) control (10 nM ribavirin in basolateral media, p>0.05): 6.3 fold

CC(N)C12CC3CC(CC(C3)C1)C2 (stereo not drawn) [rimantadine]
reduced influenza titers compared to untreated (air) control (1 nM rimantadine in basolateral media, p>0.05): 9.6 fold
reduced viral titers compared to the untreated control (10 nM rimantadine in basolateral media, p<0.001): 185 fold
